Laboratory results as given in patent US20260219274A1, “POLYOL SWEETNERS AND CARDIOVASCULAR AND THROMBOTIC EVENT RISK” (THE CLEVELAND CLINIC FOUNDATION, priority 2023, published 2026).

Tests used:
[1] = test system: platelets of healthy volunteers; experiment: Erythritol or glucose ingestion: platelet aggregation and granule release; format: in vivo, human
Experimental: This single center trial was approved by the Cleveland Clinic Institutional Review Board (clinicaltrials.gov identifier NCT04731363). Following subject consent (nonsmokers without CVD, hypertension, or diabetes), blood was drawn after overnight fast and 30 min following consumption of water containing 30 g of […] glucose (n=10, 30.1±11 years of age, 40% male), or erythritol (n=10, 30.5±8 years of age, 50% male), a quantity commonly found in erythritol-sweetened foods and the daily intake of some subjects based on 2013-2014 National Health and Nutrition Examination Survey (NHANES) data and FDA filings.(4,5).
Following erythritol consumption, postprandial circulating erythritol levels (assessed using stable-isotope-dilution liquid-chromatography tandem mass spectrometry (LC/MS/MS)3) were >1000-fold increased compared to baseline levels (median[inter quartile range], 6480[5930-7300]μM versus 3.75[3.35-3.87]μM, P<0.0001). In contrast, circulating erythritol levels remained similar before versus after glucose consumption (3.0[2.6-4.0]μM versus 2.9[2.7-3.8]μM, P=0.87; glucose levels before versus after 86.5(81.8-93.0) versus 127.0(122.3-132.3), P=0.002). […] In contrast, glucose consumption had no effect on platelet aggregation.

human whole blood = experiment: Imaging flow cytometry of platelet-leukocyte aggregates in whole blood; format: cell-based; settings: pre-incubation with physiological levels of xylitol, TRAP6 7.5 μM
Experimental: Imaging flow cytometry was performed on an Amnis ImageStreamX MK II two-camera system using anti-CD45 AF488, anti-CD41 AF647 and anti-CD62P-PE. Details and the gating strategy are described in supplemental methods.
Whole blood collected from consented healthy volunteers was incubated with xylitol (30 or 100 μM) or vehicle for 30 min. Where indicated, the samples were then stimulated with 7.5 μM TRAP6 for 10 min. Blood samples were then incubated with anti-CD45 AF488 (Catalogue #FAB1430G, R&D Systems, MN, USA), anti-CD41 AF647 (Catalogue #303726, Biolegend, San Diego, CA, USA) and anti-CD62P-PE (Catalogue #555524, BD PharMingen, San Diego, CA, USA) for 20 min at room temperature in the dark. After gentle red blood cell lysis using VersaLyse Lysing solution (Catalogue #A09777, Beckman Coulter, Brea, California, USA), cells were gently spun down and resuspended in HBSS-BSA. Platelet leucocyte aggregates were measured on an Amnis ImageStreanX MK II two-camera system (Luminex, Austin, TX, USA). Data were analyzed using Amnis IDEAS software (Luminex, Austin, TX, USA).
IDEAS analysis was performed as follows. Gating out of focus events using Gradient RMS in the brightfield image. Gating on CD45+ events using the Intensity and Max Pixel features. Elimination of false positive CD45 events and selection of only true CD45+ cells using Intensity vs. Area of CD45+. […]

Compound | platelet aggregation responses to ADP and TRAP6 after ingestion ([1]; 30 min after 30 g vs baseline) | stimulus-dependent release of alpha granule marker CXCL4 ([1]; TRAP6 (7.5 μM), ADP (2.0 μM), after ingestion) | stimulus-dependent release of dense granule marker serotonin ([1]; TRAP6 and ADP, after ingestion) | TRAP6 stimulated platelet-leukocyte aggregates (human whole blood)
OC[C@@H](O)[C@@H](O)CO [erythritol] | striking increase | markedly enhanced | markedly enhanced | –
OC[C@@H](O)[C@H](O)[C@@H](O)CO [xylitol] | – | – | – | dose-dependent increase
